ChEMBL document CHEMBL1201862, “PubChem BioAssay data set” (2004)
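Following 48 hours of exposure in 96-well plates, responses at five concentrations were used to interpolate endpoints linearly. GI50 marks 50% less growth.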 Active and inactive are the calls of the source. No stated cut-off is given here; in the data, active = GI50 up to about 1.1 µM and inactive = higher.

Legend:
Experiment in all cases: NCI anticancer screen, dose series, 48 h
ACHN = system: ACHN
CAKI-1 = system: CAKI-1
CCRF-CEM = system: CCRF-CEM
HCT-116 = system: HCT-116
HOP-62 = system: HOP-62
HT-29 = system: HT-29
K562 = system: K562
LOX IMVI = system: LOX IMVI
MOLT-4 = system: MOLT-4
NCI-H23 = system: NCI-H23
OVCAR-3 = system: OVCAR-3
OVCAR-8 = system: OVCAR-8
RPMI-8226 = system: RPMI-8226
SF-268 = system: SF-268
SF-295 = system: SF-295
SK-MEL-2 = system: SK-MEL-2
OVCAR-4 = system: OVCAR-4

Measured: GI50

O=C(O)C12C3CCC(C3)C1(C(=O)O)C1CCC2C1 (stereo unspecified)
inactive: ACHN > 100 µM | CAKI-1 > 100 µM | CCRF-CEM 32.8 µM | HCT-116 45.3 µM | HOP-62 > 100 µM | HT-29 > 100 µM | K562 89.7 µM | LOX IMVI 23.7 µM | MOLT-4 > 100 µM | NCI-H23 > 100 µM | OVCAR-3 > 100 µM | OVCAR-8 > 100 µM | RPMI-8226 23.3 µM | SF-268 > 100 µM | SF-295 > 100 µM | SK-MEL-2 > 100 µM

COc1cc2ccnc3c2c(c1OC)CC1CC(O)C(OC)CC31 (stereo unspecified)
inactive: ACHN 44.4 µM | CCRF-CEM 78.3 µM | HCT-116 38.7 µM | HOP-62 26.6 µM | HT-29 46.5 µM | K562 47.2 µM | LOX IMVI 31.7 µM | MOLT-4 33.3 µM | NCI-H23 47.5 µM | OVCAR-3 82.2 µM | OVCAR-4 > 100 µM | OVCAR-8 53.8 µM | RPMI-8226 38.3 µM | SF-295 36.6 µM | SK-MEL-2 > 100 µM

COC(=O)C1=Cc2cc(OC)c(OC)cc2[C@H](c2ccc(OC)c(OC)c2)C1C(=O)OC (stereo partly specified)
inactive: ACHN > 100 µM | CAKI-1 > 100 µM | CCRF-CEM > 100 µM | HCT-116 > 100 µM | HOP-62 > 100 µM | HT-29 75.9 µM | K562 > 100 µM | LOX IMVI > 100 µM | MOLT-4 > 100 µM | NCI-H23 > 100 µM | OVCAR-3 > 100 µM | OVCAR-4 > 100 µM | OVCAR-8 > 100 µM | RPMI-8226 > 100 µM | SF-268 > 100 µM | SF-295 > 100 µM

Oc1ccc(-c2n[nH]c(S)n2)cc1
inactive: ACHN > 100 µM | CAKI-1 > 100 µM | CCRF-CEM > 100 µM | HCT-116 > 100 µM | HOP-62 > 100 µM | HT-29 > 100 µM | K562 > 100 µM | MOLT-4 > 100 µM | NCI-H23 > 100 µM | OVCAR-3 > 100 µM | OVCAR-4 > 100 µM | OVCAR-8 > 100 µM | RPMI-8226 > 100 µM | SF-268 > 100 µM | SF-295 > 100 µM | SK-MEL-2 > 100 µM

Cc1ccc(/C=C(\NC(=O)c2ccccc2)c2nc3ccccc3[nH]2)cc1
inactive: ACHN 47.5 µM | HCT-116 37.2 µM | HOP-62 > 100 µM | HT-29 37.5 µM | NCI-H23 59.6 µM | OVCAR-3 46.9 µM | OVCAR-4 70.5 µM | OVCAR-8 43.8 µM | SF-268 60.8 µM | SF-295 36.6 µM | SK-MEL-2 31.6 µM

NCCCC(N/C=C1/N=C(c2ccccc2)OC1=O)C(=O)O (stereo unspecified)
inactive: ACHN > 100 µM | CCRF-CEM 37.8 µM | HCT-116 40.3 µM | HOP-62 > 100 µM | HT-29 > 100 µM | K562 34.4 µM | LOX IMVI > 100 µM | MOLT-4 > 100 µM | NCI-H23 > 100 µM | OVCAR-3 > 100 µM | OVCAR-4 > 100 µM | OVCAR-8 > 100 µM | RPMI-8226 45.5 µM | SF-268 > 100 µM | SF-295 > 100 µM | SK-MEL-2 > 100 µM

c1ccc2c(c1)nnn2CNc1ccc(N2CCCCC2)cc1
inactive: ACHN > 100 µM | CCRF-CEM 77.1 µM | HCT-116 > 100 µM | HOP-62 > 100 µM | HT-29 > 100 µM | K562 > 100 µM | LOX IMVI > 100 µM | MOLT-4 > 100 µM | NCI-H23 > 100 µM | OVCAR-3 > 100 µM | OVCAR-4 > 100 µM | OVCAR-8 > 100 µM | RPMI-8226 68.2 µM | SF-268 > 100 µM | SF-295 > 100 µM | SK-MEL-2 > 100 µM

Cc1cccc(N2C(=O)/C(=C/c3ccc(N(CCC#N)CCC#N)cc3C)N=C2c2cc([N+](=O)[O-])ccc2Cl)c1
inactive: ACHN > 100 µM | CAKI-1 8.18 µM | CCRF-CEM 41.9 µM | HCT-116 85.7 µM | HOP-62 > 100 µM | HT-29 45.5 µM | K562 86.1 µM | MOLT-4 46.5 µM | NCI-H23 > 100 µM | OVCAR-3 > 100 µM | OVCAR-4 > 100 µM | OVCAR-8 > 100 µM | RPMI-8226 > 100 µM | SF-268 > 100 µM | SF-295 > 100 µM | SK-MEL-2 > 100 µM

COC(=O)C(C(=O)C(=O)Nc1ccc(C)cc1C)c1nc2ccc([N+](=O)[O-])cc2nc1O (stereo unspecified)
inactive: ACHN > 100 µM | CAKI-1 > 100 µM | CCRF-CEM 71.4 µM | HCT-116 > 100 µM | HOP-62 > 100 µM | HT-29 > 100 µM | K562 78.7 µM | LOX IMVI > 100 µM | MOLT-4 > 100 µM | NCI-H23 > 100 µM | OVCAR-4 > 100 µM | OVCAR-8 > 100 µM | RPMI-8226 33.8 µM | SF-268 > 100 µM | SF-295 > 100 µM | SK-MEL-2 > 100 µM

CNC(=O)NCNC(=O)NC
inactive: CAKI-1 > 100 µM | CCRF-CEM > 100 µM | HCT-116 > 100 µM | HOP-62 > 100 µM | HT-29 > 100 µM | K562 > 100 µM | LOX IMVI > 100 µM | MOLT-4 > 100 µM | NCI-H23 > 100 µM | OVCAR-3 > 100 µM | OVCAR-4 > 100 µM | OVCAR-8 > 100 µM | RPMI-8226 > 100 µM | SF-295 > 100 µM | SK-MEL-2 > 100 µM

Cc1cc(N(CCC#N)CCC#N)ccc1/C=C1\N=C(c2cc([N+](=O)[O-])ccc2Cl)N(NC(=O)c2ccc(/N=C\c3ccc(N(CCC#N)S(C)(=O)=O)cc3C)cc2)C1=O
inactive: ACHN 89.9 µM | CAKI-1 > 100 µM | CCRF-CEM 76.4 µM | HCT-116 > 100 µM | HOP-62 63.5 µM | HT-29 54.5 µM | K562 31.9 µM | LOX IMVI > 100 µM | NCI-H23 > 100 µM | OVCAR-3 > 100 µM | OVCAR-4 > 100 µM | OVCAR-8 > 100 µM | RPMI-8226 > 100 µM | SF-268 > 100 µM | SK-MEL-2 > 100 µM

CCO[C@]12C[C@H](OC)[C@@]3(O)CC(C1[C@H]3OCc1ccccc1)C13C4C2[C@H](OC)C1[C@](COC)(CN4CC)[C@H](O)C[C@@H]3OC (stereo partly specified)
inactive: ACHN > 100 µM | CCRF-CEM > 100 µM | HCT-116 > 100 µM | HOP-62 > 100 µM | HT-29 > 100 µM | K562 > 100 µM | LOX IMVI > 100 µM | MOLT-4 95.9 µM | NCI-H23 > 100 µM | OVCAR-4 > 100 µM | OVCAR-8 > 100 µM | RPMI-8226 > 100 µM | SF-268 > 100 µM

CN1CC[C@]2(C)c3cc(O)ccc3CC3CCCC1C32C (stereo partly specified)
inactive: ACHN > 100 µM | CAKI-1 > 100 µM | CCRF-CEM > 100 µM | HCT-116 > 100 µM | HOP-62 > 100 µM | HT-29 > 100 µM | K562 > 100 µM | LOX IMVI > 100 µM | MOLT-4 > 100 µM | NCI-H23 > 100 µM | OVCAR-3 > 100 µM | OVCAR-8 > 100 µM | RPMI-8226 > 100 µM | SF-268 > 100 µM | SF-295 > 100 µM
